Assays:
Assay in all cases: relative viability (nuclei count vs DMSO), 5 days (fraction); higher = more cells survive
[1] = compound: CC(C)(C)c1cc(NC(=O)Nc2ccc(-c3cn4c(n3)sc3cc(OCCN5CCOCC5)ccc34)cc2)no1 [Quizartinib]
Procedure, shortened: (§1)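 Nuclei counted with MetaXpress define viability as the ratio of treated to vehicle wells, given as a median across plates. The lung cancer cell lines were in 1536-well plates, pinned with five √10-spaced library-drug doses and imaged at 4× after 5 days and Hoechst staining. Plates passed with control CV below 25% and at least one doubling.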

[2] = compound: COCC[n+]1c2c(n(Cc3cnccn3)c1C)C(=O)c1ccccc1C2=O [YM155]
Procedure, shortened: as §1

[3] = compound: CC(C)(C)c1cc(NC(=O)Nc2ccc(-c3cn4c(n3)sc3cc(OCCN5CCOCC5)ccc34)cc2)no1 [Quizartinib] + COc1cccc2cc(-c3nc([C@H]4CC[C@H](C(=O)O)CC4)n4ncnc(N)c34)[nH]c12 [OSI-027] (partner 0.5 µM)
Procedure, shortened: (§2)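 Lung cancer cell lines were seeded in 1536-well plates and dosed by pin tool the next day, with either a single drug or a fixed anchor-drug dose combined with five library-drug doses (not always all listed) spaced in √10 steps. Five days later, one step fixed the cells and stained their nuclei (final 0.05% Triton X-100, 1% formaldehyde, 1 ug/ml Hoechst), and nuclei were counted on 4× images. Relative viability is the nuclei count in treated wells divided by the count in vehicle wells, and each value is the median of duplicate plates.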

[4] = compound: COCC[n+]1c2c(n(Cc3cnccn3)c1C)C(=O)c1ccccc1C2=O [YM155] + Nc1nc2[nH]cc(CCc3ccc(C(=O)N[C@@H](CCC(=O)O)C(=O)O)cc3)c2c(=O)[nH]1 [Pemetrexed] (partner 0.2 µM)
Procedure, shortened: as §2

HOP-62
relative viability ([1]; 0.001 µM): 0.843
relative viability ([1]; 0.003162 µM): 0.954
relative viability ([1]; 0.01 µM): 1.01
relative viability ([1]; 0.03162 µM): 1.1
relative viability ([1]; 0.1 µM): 0.979
relative viability ([2]; 0.002 µM): 0.971
relative viability ([2]; 0.006325 µM): 0.93
relative viability ([2]; 0.02 µM): 1.06
relative viability ([2]; 0.06325 µM): 0.93
relative viability ([3]; first compound 0.001 µM): 0.75
relative viability ([3]; first compound 0.003162 µM): 0.769
relative viability ([3]; first compound 0.01 µM): 1.03
relative viability ([3]; first compound 0.03162 µM): 0.87
relative viability ([3]; first compound 0.1 µM): 0.847
relative viability ([4]; first compound 0.002 µM): 0.372
relative viability ([4]; first compound 0.006325 µM): 0.365
relative viability ([4]; first compound 0.02 µM): 0.325
relative viability ([4]; first compound 0.06325 µM): 0.289

HCC-44
relative viability ([1]; 0.001 µM): 0.963
relative viability ([1]; 0.003162 µM): 0.981
relative viability ([1]; 0.01 µM): 0.888
relative viability ([1]; 0.03162 µM): 1
relative viability ([1]; 0.1 µM): 0.858
relative viability ([2]; 0.002 µM): 0.986
relative viability ([2]; 0.006325 µM): 1.03
relative viability ([2]; 0.02 µM): 0.988
relative viability ([2]; 0.06325 µM): 0.978
relative viability ([3]; first compound 0.003162 µM): 0.641
relative viability ([3]; first compound 0.01 µM): 0.416
relative viability ([3]; first compound 0.03162 µM): 0.475
relative viability ([3]; first compound 0.1 µM): 0.549
relative viability ([4]; first compound 0.002 µM): 0.615
relative viability ([4]; first compound 0.006325 µM): 0.722
relative viability ([4]; first compound 0.02 µM): 0.624
relative viability ([4]; first compound 0.06325 µM): 0.643

NCI-H1993
relative viability ([1]; 0.001 µM): 0.948
relative viability ([1]; 0.003162 µM): 1
relative viability ([1]; 0.01 µM): 1.02
relative viability ([1]; 0.03162 µM): 1.04
relative viability ([1]; 0.1 µM): 1.11
relative viability ([2]; 0.002 µM): 0.904
relative viability ([2]; 0.006325 µM): 0.927
relative viability ([2]; 0.02 µM): 0.771
relative viability ([2]; 0.06325 µM): 0.577
relative viability ([3]; first compound 0.001 µM): 0.487
relative viability ([3]; first compound 0.003162 µM): 0.46
relative viability ([3]; first compound 0.01 µM): 0.672
relative viability ([3]; first compound 0.03162 µM): 0.621
relative viability ([3]; first compound 0.1 µM): 0.544
relative viability ([4]; first compound 0.002 µM): 0.566
relative viability ([4]; first compound 0.006325 µM): 0.542
relative viability ([4]; first compound 0.02 µM): 0.567
relative viability ([4]; first compound 0.06325 µM): 0.444

A-427
relative viability ([1]; 0.001 µM): 0.771
relative viability ([1]; 0.003162 µM): 0.982
relative viability ([1]; 0.01 µM): 0.979
relative viability ([1]; 0.03162 µM): 0.922
relative viability ([1]; 0.1 µM): 1.05
relative viability ([2]; 0.002 µM): 0.883
relative viability ([2]; 0.006325 µM): 0.951
relative viability ([2]; 0.02 µM): 1.03
relative viability ([2]; 0.06325 µM): 0.941
relative viability ([3]; first compound 0.003162 µM): 0.446
relative viability ([3]; first compound 0.01 µM): 0.437
relative viability ([3]; first compound 0.03162 µM): 0.484
relative viability ([3]; first compound 0.1 µM): 0.529
relative viability ([4]; first compound 0.002 µM): 0.941
relative viability ([4]; first compound 0.006325 µM): 1.02
relative viability ([4]; first compound 0.02 µM): 1
relative viability ([4]; first compound 0.06325 µM): 0.762

COR-L23
relative viability ([1]; 0.001 µM): 0.952
relative viability ([1]; 0.003162 µM): 0.939
relative viability ([1]; 0.01 µM): 0.992
relative viability ([1]; 0.03162 µM): 0.979
relative viability ([1]; 0.1 µM): 1.05
relative viability ([2]; 0.002 µM): 0.988
relative viability ([2]; 0.006325 µM): 0.912
relative viability ([2]; 0.02 µM): 0.689
relative viability ([2]; 0.06325 µM): 0.281
relative viability ([3]; first compound 0.001 µM): 0.743
relative viability ([3]; first compound 0.003162 µM): 0.73
relative viability ([3]; first compound 0.01 µM): 0.946
relative viability ([3]; first compound 0.03162 µM): 0.696
relative viability ([3]; first compound 0.1 µM): 0.768
relative viability ([4]; first compound 0.002 µM): 0.194
relative viability ([4]; first compound 0.006325 µM): 0.198
relative viability ([4]; first compound 0.02 µM): 0.18
relative viability ([4]; first compound 0.06325 µM): 0.136

NCI-H2023
relative viability ([1]; 0.001 µM): 0.881
relative viability ([1]; 0.003162 µM): 0.999
relative viability ([1]; 0.01 µM): 0.938
relative viability ([1]; 0.1 µM): 1.01
relative viability ([2]; 0.002 µM): 0.872
relative viability ([2]; 0.006325 µM): 1.01
relative viability ([2]; 0.02 µM): 0.866
relative viability ([2]; 0.06325 µM): 0.71
relative viability ([3]; first compound 0.001 µM): 0.363
relative viability ([3]; first compound 0.003162 µM): 0.469
relative viability ([3]; first compound 0.01 µM): 0.367
relative viability ([3]; first compound 0.1 µM): 0.355
relative viability ([4]; first compound 0.002 µM): 0.23
relative viability ([4]; first compound 0.006325 µM): 0.247
relative viability ([4]; first compound 0.02 µM): 0.194
relative viability ([4]; first compound 0.06325 µM): 0.155

NCI-H661
relative viability ([1]; 0.001 µM): 0.883
relative viability ([1]; 0.003162 µM): 0.988
relative viability ([1]; 0.01 µM): 0.991
relative viability ([1]; 0.03162 µM): 1.01
relative viability ([1]; 0.1 µM): 0.948
relative viability ([2]; 0.002 µM): 0.982
relative viability ([2]; 0.006325 µM): 0.957
relative viability ([2]; 0.02 µM): 0.991
relative viability ([2]; 0.06325 µM): 0.909
relative viability ([3]; first compound 0.001 µM): 0.66
relative viability ([3]; first compound 0.003162 µM): 0.594
relative viability ([3]; first compound 0.01 µM): 0.692
relative viability ([3]; first compound 0.03162 µM): 0.693
relative viability ([3]; first compound 0.1 µM): 0.721
relative viability ([4]; first compound 0.002 µM): 0.935
relative viability ([4]; first compound 0.006325 µM): 0.961
relative viability ([4]; first compound 0.02 µM): 0.919
relative viability ([4]; first compound 0.06325 µM): 0.485

NCI-H322M
relative viability ([1]; 0.001 µM): 0.952
relative viability ([1]; 0.003162 µM): 1.03
relative viability ([1]; 0.01 µM): 0.916
relative viability ([1]; 0.03162 µM): 0.965
relative viability ([1]; 0.1 µM): 0.978
relative viability ([2]; 0.002 µM): 0.92
relative viability ([2]; 0.006325 µM): 0.982
relative viability ([2]; 0.02 µM): 1
relative viability ([2]; 0.06325 µM): 1.03
relative viability ([3]; first compound 0.001 µM): 0.54
relative viability ([3]; first compound 0.003162 µM): 0.568
relative viability ([3]; first compound 0.01 µM): 0.556
relative viability ([3]; first compound 0.03162 µM): 0.517
relative viability ([3]; first compound 0.1 µM): 0.57
relative viability ([4]; first compound 0.002 µM): 0.504
relative viability ([4]; first compound 0.006325 µM): 0.613
relative viability ([4]; first compound 0.02 µM): 0.576
relative viability ([4]; first compound 0.06325 µM): 0.622

NCI-H838
relative viability ([1]; 0.001 µM): 0.894
relative viability ([1]; 0.003162 µM): 0.962
relative viability ([1]; 0.01 µM): 0.882
relative viability ([1]; 0.03162 µM): 0.936
relative viability ([1]; 0.1 µM): 0.843
relative viability ([2]; 0.002 µM): 0.912
relative viability ([2]; 0.006325 µM): 0.999
relative viability ([2]; 0.02 µM): 1.01
relative viability ([2]; 0.06325 µM): 0.768
relative viability ([3]; first compound 0.001 µM): 0.346
relative viability ([3]; first compound 0.003162 µM): 0.4
relative viability ([3]; first compound 0.01 µM): 0.299
relative viability ([3]; first compound 0.03162 µM): 0.38
relative viability ([3]; first compound 0.1 µM): 0.375
relative viability ([4]; first compound 0.002 µM): 0.276
relative viability ([4]; first compound 0.006325 µM): 0.232
relative viability ([4]; first compound 0.02 µM): 0.225
relative viability ([4]; first compound 0.06325 µM): 0.216

NCI-H23
relative viability ([1]; 0.001 µM): 0.742
relative viability ([1]; 0.003162 µM): 1.01
relative viability ([1]; 0.01 µM): 0.918
relative viability ([1]; 0.03162 µM): 0.896
relative viability ([1]; 0.1 µM): 1.05
relative viability ([2]; 0.002 µM): 0.734
relative viability ([2]; 0.006325 µM): 0.925
relative viability ([2]; 0.02 µM): 0.957
relative viability ([2]; 0.06325 µM): 0.529
relative viability ([3]; first compound 0.003162 µM): 0.561
relative viability ([3]; first compound 0.01 µM): 0.465
relative viability ([3]; first compound 0.03162 µM): 0.507
relative viability ([3]; first compound 0.1 µM): 0.401
relative viability ([4]; first compound 0.006325 µM): 0.655
relative viability ([4]; first compound 0.02 µM): 0.646
relative viability ([4]; first compound 0.06325 µM): 0.549

LOU-NH91
relative viability ([1]; 0.001 µM): 0.954
relative viability ([1]; 0.003162 µM): 1.12
relative viability ([1]; 0.01 µM): 0.965
relative viability ([1]; 0.03162 µM): 0.857
relative viability ([1]; 0.1 µM): 1.14
relative viability ([2]; 0.002 µM): 0.958
relative viability ([2]; 0.006325 µM): 1.01
relative viability ([2]; 0.02 µM): 1.02
relative viability ([2]; 0.06325 µM): 1.07
relative viability ([3]; first compound 0.001 µM): 0.673
relative viability ([3]; first compound 0.003162 µM): 0.749
relative viability ([3]; first compound 0.01 µM): 0.712
relative viability ([3]; first compound 0.03162 µM): 0.742
relative viability ([3]; first compound 0.1 µM): 0.767
relative viability ([4]; first compound 0.002 µM): 0.361
relative viability ([4]; first compound 0.006325 µM): 0.356
relative viability ([4]; first compound 0.02 µM): 0.346
relative viability ([4]; first compound 0.06325 µM): 0.343
